# From ChEMBL document CHEMBL3046315, “Synthesis and Fungicidal Activity of New Thiophosphorylated Monoterpenoids and Related Compounds” (1996)
# How the values were obtained:
# Format in all cases: functional
# Athelia rolfsii [1] = experiment: Fungicidal activity against Athelia rolfsii assessed as growth inhibition at 10 ppm after 5 days by agar dilution test; settings: Agroathelia rolfsii, 120 h; read-out: GI
# Pythium [2] = experiment: Fungicidal activity against Pythium sp. assessed as growth inhibition at 10 ppm after 5 days by agar dilution test; settings: 120 h, read-out: GI
# Pythium [3] = experiment: Fungicidal activity against Pythium sp. assessed as growth inhibition at 100 ppm after 5 days by agar dilution test; settings: 120 h, read-out: GI
# Athelia rolfsii [4] = experiment: Fungicidal activity against Athelia rolfsii assessed as growth inhibition at 100 ppm after 5 days by agar dilution test; settings: Agroathelia rolfsii, 120 h; read-out: GI
SMILES,inhibition of growth at 10 ppm (Athelia rolfsii [1]) [%],inhibition of growth at 10 ppm (Pythium [2]) [%],inhibition of growth at 100 ppm (Pythium [3]) [%],inhibition of growth at 100 ppm (Athelia rolfsii [4]) [%]
Cc1ccc(C(C)C)c(O)c1 [THYMOL],28.3,29.6,93,71
CCOP(=S)(OCCc1ccccc1)OCCc1ccccc1 [DIPHENETHYL ETHYL PHOSPHOROTHIONATE],,,23.3,33.4
CC(C)=CCCC(C)CCO (configuration not stated) [CITRONELLOL],,0,68.9,23.9
COP(=S)(OC)OCCC(C)CCC=C(C)C (configuration not stated),36.2,,30,76.9
CCOP(O)(=S)Oc1cc(C(C)C)ccc1C (configuration not stated) [ETHYL ISOTHYMYL HYDROGENPHOSPHOROTHIONATE],,10.4,71,54.9
C=CCc1ccc(OP(=S)(OCC)OCC)c(OC)c1,,,34.3,60.2
Cc1ccc(C(C)C)c(OP(=S)(Oc2cc(C)ccc2C(C)C)c2ccccc2)c1,,,1.3,0
CCOP(=S)(OCC)OCCC(C)CCC=C(C)C (configuration not stated),,,10.2,31.3
CCOP(O)(=S)OCCc1ccccc1 (configuration not stated),,,61.1,29.2
C=CCc1ccc(OP(=S)(OC)OC)c(OC)c1,38.5,,44.9,90.5
CCOP(=S)(OCC)Oc1cc(C(C)C)ccc1C,,,19.8,58.2
CCOP(=S)(Oc1cc(C(C)C)ccc1C)Oc1cc(C(C)C)ccc1C [DIISOTHYMOL PHOSPHOROTHIONATE],,,67,36.8
C=CCc1ccc(OP(O)(=S)OCC)c(OC)c1 (configuration not stated),,,37.3,24.7
CCOP(=S)(OCC)OCCc1ccccc1,42.3,,68.8,95.1
Cc1ccc(C(C)C)cc1OP(=S)(Oc1cc(C(C)C)ccc1C)c1ccccc1,,,0,0
CCOP(O)(=S)Oc1cc(C)ccc1C(C)C (configuration not stated),,,55.7,46
OCCc1ccccc1 [PHENYLETHYL ALCOHOL],,,50.9,0
COP(=S)(OC)Oc1cc(C(C)C)ccc1C,37.5,22.8,61.1,85.2
CCOP(=S)(OCCC(C)CCC=C(C)C)OCCC(C)CCC=C(C)C (configuration not stated) [DICITRONELLYL PHOSPHOROTHIONATE],,,64.5,30.3
C=CCc1ccc(OP(=S)(OCC)Oc2ccc(CC=C)cc2OC)c(OC)c1 [DIEUGENOL PHOSPHOROTHIONATE],,,34.6,6.1
Cc1ccc(O)c(C(C)C)c1 [ISOTHYMOL],38,24.2,94.3,72.4
COP(=S)(OC)OCCc1ccccc1,56.6,39.6,89.8,100
C=CCc1ccc(O)c(OC)c1 [EUGENOL],5.9,7.4,92.7,67.6
CCOP(=S)(OCC)Oc1cc(C)ccc1C(C)C,,,52.9,56.8
CCOP(O)(=S)OCCC(C)CCC=C(C)C (configuration not stated),0,15.8,67,70.7
COP(=S)(OC)Oc1cc(C)ccc1C(C)C,29.3,32.5,67.4,84.3
CCOP(=S)(Oc1cc(C)ccc1C(C)C)Oc1cc(C)ccc1C(C)C [DITHYMOL PHOSPHOROTHIONATE],,,58.4,30.3
CC(C)OP(=O)(OC(C)C)SCc1ccccc1 [IPROBENFOS],68.8,41.7,88.5,100
